For 37 compounds, IC50 results are on record in US8338465B2, “Cyclic carboxylic acid rhodanine derivatives for the treatment and prevention of tuberculosis” (priority 2006, dated 2012).

The assay concerns the target T1, dihydrolipoamide acyltransferase (DlaT) (Mycobacterium tuberculosis, UniProt P9WIS7).
T1 sequence (P9WIS7 1-553): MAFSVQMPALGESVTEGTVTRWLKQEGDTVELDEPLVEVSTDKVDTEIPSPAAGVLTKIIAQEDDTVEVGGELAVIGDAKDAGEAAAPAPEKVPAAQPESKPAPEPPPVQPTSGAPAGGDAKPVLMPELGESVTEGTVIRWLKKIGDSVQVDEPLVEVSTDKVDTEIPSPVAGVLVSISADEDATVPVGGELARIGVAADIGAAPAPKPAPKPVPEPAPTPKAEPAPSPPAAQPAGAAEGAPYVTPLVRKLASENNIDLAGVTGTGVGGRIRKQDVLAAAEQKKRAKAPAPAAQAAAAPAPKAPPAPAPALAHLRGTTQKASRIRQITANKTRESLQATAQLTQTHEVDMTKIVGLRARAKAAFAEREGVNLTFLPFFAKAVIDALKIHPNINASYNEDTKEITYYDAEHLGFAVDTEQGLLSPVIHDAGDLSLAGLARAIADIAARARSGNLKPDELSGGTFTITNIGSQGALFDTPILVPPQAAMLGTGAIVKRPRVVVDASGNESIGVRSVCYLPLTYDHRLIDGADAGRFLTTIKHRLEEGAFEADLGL
In words: DlaT inhibition (Dlat IC50); DTNB peroxidase assay with Lpd, DlaT and AhpD. It counts as biochemical.

Where [1] appears, read: Table 1, Compounds A1 to A294, read-out: Dlat IC50 category.

pIC50: −log10 of the molar value. Where two headings read alike, the source gives them in different places. Where only a bound is given, the exact number is not on record here.

As usually defined, the pIC50 is −log10 of the IC50, conventionally taken in molar units. The compound `CN(C)S(=O)(=O)c1ccc(-c2ccc(C=C3SC(=S)N(C4CCCC(C(=O)O)C4)C3=O)o2)cc1` (stereo not shown) [Compound C85, 3-{5-[5-(4-Dimethylsulfamoyl-phenyl)-furan-2-ylmethylene]-4-oxo-2-thioxo-thiazolidin-3-yl}-cyclohexanecarboxylic acid] gave a pIC50 (Dlat IC50 category) of 4.10 to 4.39.

As for `Cc1ccc(C(=O)O)cc1N1C(=O)C(=Cc2ccc(-c3ccc(C(C)(C)C)cc3)o2)SC1=S` [Compound A80], under setting [1], the pIC50 is over 5.00.

For `CCCc1ccc(-c2ccc(C=C3SC(=S)N(C4CCCC(C(=O)O)C4)C3=O)o2)cc1` (stereo not shown) [Compound C79, 3-{5-[1-[5-(4-propyl-phenyl)-furan-2-yl]-methylidene]-4-oxo-2-thioxo-thiazolidin-3-yl}-cyclohexanecarboxylic acid], under “Dlat IC50 category”, the pIC50 was 4.40 to 4.96.

`Cc1ccc(C(=O)O)cc1N1C(=O)C(=Cc2ccc(-c3ccc(Cl)c(Cl)c3)o2)SC1=S` [Compound A113]: the pIC50 under setting [1] was over 5.00.

Regarding `CC(CO)(CO)COC(=O)c1cccc(N2C(=O)C(=Cc3ccc(-c4ccccc4Cl)o3)SC2=S)c1` [Compound T5, 3-{5-[1-[5-(2-Chloro-phenyl)-furan-2-yl]-methylidene]-4-oxo-2-thioxo-thiazolidin-3-yl}-benzoic acid 3-hydroxy-2-hydroxymethyl-2-methyl propyl ester], the pIC50 (Table 20, Prodrugs (Compounds T1 to T8), read-out: Dlat IC50 category) was 4.40 to 4.96.

Regarding `O=C(O)c1ccc(F)c(N2C(=O)C(=Cc3ccc(-c4cccc(C(F)(F)F)c4)o3)SC2=S)c1` [Compound A103], the pIC50 under setting [1] is over 5.00.

For `O=C(O)c1cccc(N2C(=O)C(=Cc3ccc(-c4ccc(C(=O)O)c(O)c4)o3)SC2=S)c1` [Compound A115], under setting [1], the negative-log IC50 (pIC50) is 4.40 to 4.96.

Take `Cc1ccc(-c2ccc(C=C3SC(=S)N(c4cccc(C(=O)O)c4)C3=O)cc2)cc1` [Compound A246]: the pIC50 under setting [1] is over 5.00.

For the setting “Dlat IC50 category”, `COc1ccc(-c2ccc(C=C3SC(=S)N(Nc4ccccc4C(=O)O)C3=O)o2)cc1` [Compound D14, 2-{5-[1-[5-(4-methoxy-phenyl)-furan-2-yl]-methylidene]-4-oxo-2-thioxo-thiazolidin-3-ylamino}-benzoic acid] showed a pIC50 of over 5.00.

As for `O=C(O)c1cc(N2C(=O)C(=Cc3ccc(-c4ccccc4OC(F)(F)F)o3)SC2=S)ccc1Cl` [Compound A69], the pIC50 under setting [1] is over 5.00.

In turn, `O=C(O)C(c1ccccc1)N1C(=O)C(=Cc2ccc(-c3cc(Cl)ccc3Cl)o2)SC1=S` (stereo not shown) [Compound B46] had a pIC50 (Dlat IC50 category) of over 5.00.

Consider `C#Cc1ccc(-c2ccc(C=C3SC(=S)N(c4cccc(C(=O)O)c4)C3=O)o2)cc1` [Compound A126], for which the pIC50 under setting [1] is 4.40 to 4.96.

As for `O=C(O)C1CCC(N2C(=O)C(=Cc3ccc(-c4ccc(Cl)cc4)o3)SC2=S)CC1` (stereo not shown) [Compound C18, 4-{5-[1-[5-(4-chloro-phenyl)-furan-2-yl]-methylidene]-4-oxo-2-thioxo-thiazolidin-3-yl}-cyclohexanecarboxylic acid], the pIC50 (Dlat IC50 category) was over 5.00.

Under “Dlat IC50 category”, `O=C(O)CCCCCN1C(=O)C(=Cc2ccc(-c3ccc(-c4ccccc4)cc3)o2)SC1=S` [Compound B18] gave a pIC50 of over 5.00.

As for `O=C(O)c1ccc(N2C(=O)C(=Cc3ccc(-c4ccc(Cl)cc4)o3)SC2=S)cc1` [Compound A20], the pIC50 under setting [1] is over 5.00.

For `N#Cc1c(F)cccc1-c1ccc(C=C2SC(=S)N(c3cccc(C(=O)O)c3)C2=O)o1` [Compound A143], the pIC50 under setting [1] was 4.40 to 4.96.

For the compound `NS(=O)(=O)c1ccc(N2C(=O)C(=Cc3ccc(-c4cccc(C(F)(F)F)c4)o3)SC2=S)cc1` [Compound A18], under setting [1], the pIC50 was 4.40 to 4.96.

Regarding `CNS(=O)(=O)c1ccc(-c2ccc(C=C3SC(=S)N(c4cccc(C(=O)O)c4)C3=O)o2)cc1` [Compound A286], the pIC50 under setting [1] is 4.40 to 4.96.

The compound `CSc1ccc(-c2ccc(C=C3SC(=S)N(Nc4ccccc4C(=O)O)C3=O)o2)cc1` [Compound D53, 2-{5-[1-[5-(4-methylsulfanyl-phenyl)-furan-2-yl]-methylidene]-4-oxo-2-thioxo-thiazolidin-3-ylamino}-benzoic acid] showed a pIC50 (Dlat IC50 category) of 4.40 to 4.96.

For `O=C(OCCN(CCO)CCO)c1cccc(N2C(=O)C(=Cc3ccc(-c4ccccc4Cl)o3)SC2=S)c1` [Compound T8, 3-{5-[1-[5-(2-Chloro-phenyl)-furan-2-yl]-methylidene]-4-oxo-2-thioxo-thiazolidin-3-yl}-benzoic acid 2-[bis-(2-hydroxy-ethyl)-amino]-ethyl ester], where the note is “Dlat IC50 category, Table 20, Prodrugs (Compounds T1 to T8)”, the pIC50 is 4.10 to 4.39.

As for `CC(=O)NS(=O)(=O)c1cccc(N2C(=O)C(=Cc3ccc(-c4ccccc4Cl)o3)SC2=S)c1` [Compound A37], the pIC50 under setting [1] was 4.40 to 4.96.

On to `COc1ccc(C(=O)O)cc1N1C(=O)C(=Cc2ccc(-c3ccc(CC(C)C)cc3)o2)SC1=S` [Compound A91], for which the pIC50 under setting [1] was over 5.00.

On to `O=C(O)c1cc(N2C(=O)C(=Cc3ccc(-c4c(Cl)cccc4Cl)o3)SC2=S)ccc1O` [Compound A42], for which the pIC50 under setting [1] is 4.40 to 4.96.

With `CN(C)c1cccc(-c2ccc(C=C3SC(=S)N(c4cccc(C(=O)O)c4)C3=O)o2)c1` [Compound A125], the pIC50 under setting [1] was over 5.00.

`O=C(O)CCCCCN1C(=O)C(=Cc2cccc(-c3ccccc3Cl)n2)SC1=S` [Compound B15] gave a pIC50 (Dlat IC50 category) of 4.40 to 4.96.

As for `NS(=O)(=O)c1ccc(N2C(=O)C(=Cc3ccc(-c4ccc(Cc5ccccc5)cc4)o3)SC2=S)cc1` [Compound A12], under setting [1], the pIC50 is 4.40 to 4.96.

`O=C(O)C1CCCC(N2C(=O)C(=Cc3ccc(-c4cccc(-c5ccccc5)c4)o3)SC2=S)C1` (stereo not shown) [Compound C38, 3-{5-[1-(5-biphenyl-3-yl-furan-2-yl)-methylidene]-4-oxo-2-thioxo-thiazolidin-3-yl}-cyclohexanecarboxylic acid] had a pIC50 (Dlat IC50 category) of over 5.00.

For the compound `Cc1ccccc1-c1ccc(C=C2SC(=S)N(c3cccc(C(=O)O)c3)C2=O)o1` [Compound A134], the negative-log IC50 (pIC50) under setting [1] was 4.40 to 4.96.

For `COc1ccc(-c2ccc(C=C3SC(=S)N(Nc4ccccc4C(=O)O)C3=O)o2)cc1F` [Compound D26, 2-{5-[1-[5-(3-fluoro-4-methoxy-phenyl)-furan-2-yl]-methylidene]-4-oxo-2-thioxo-thiazolidin-3-ylamino}-benzoic acid], for the setting “Dlat IC50 category”, the pIC50 was over 5.00.

For `COc1ccc(C(=O)O)cc1N1C(=O)C(=Cc2ccc(-c3cccc(C(F)(F)F)c3)o2)SC1=S` [Compound A86], the pIC50 under setting [1] is over 5.00.

With `O=C(O)c1cccc(N2C(=O)C(=Cc3ccc(-c4ccc(Cl)cc4)o3)SC2=S)c1` [Compound A21], the pIC50 under setting [1] is over 5.00.

As to `Cc1cc(Cl)ccc1-c1ccc(C=C2SC(=S)N(c3cccc(C(=O)O)c3)C2=O)o1` [Compound A169], under setting [1], the pIC50 is over 5.00.

Under “Dlat IC50 category”, `O=C(O)CCCCCN1C(=O)C(=Cc2ccc(-c3ccccc3C(F)(F)F)o2)SC1=S` [Compound B23] had a pIC50 of 4.40 to 4.96.

`COc1ccc(-c2ccc(C=C3SC(=S)N(c4cccc(C(=O)O)c4)C3=O)o2)cc1F` [Compound A177]: under setting [1], the negative-log IC50 (pIC50) is over 5.00.

In turn, `O=C(O)c1ccccc1NN1C(=O)C(=Cc2ccc(-c3ccc(F)cc3F)o2)SC1=S` [Compound D7, 2-{5-[1-[5-(2,4-difluoro-phenyl)-furan-2-yl]-methylidene]-4-oxo-2-thioxo-thiazolidin-3-ylamino}-benzoic acid] gave a negative logarithm of the IC50 (pIC50) (Dlat IC50 category) of over 5.00.

On to `O=C(O)c1cccc(N2C(=O)C(=Cc3ccc(-c4ccc(Cl)cc4Cl)o3)SC2=S)c1` [Compound A35], for which the pIC50 under setting [1] was 4.40 to 4.96.

Regarding `O=C(O)c1ccc(N2C(=O)C(=Cc3cc(-c4cccc(C(F)(F)F)c4)co3)SC2=S)cc1` [Compound A29], the pIC50 under setting [1] is 4.40 to 4.96.
